Experimental data from US6579718B1, “Carbazolylvinyl dye protein stains” (Molecular Probes, Inc., priority 2000, dated 2003).

Key:
BSA = BSA (Bos taurus, UniProt P02769); experiment: Absorbance/emission spectra, fluorescence enhancement and quantum yield of dyes in solution +/- BSA (Example 21); type: physicochemical, bovine; conditions: for EM λ max, BSA / FE (fluorescence enhancement, BSA) / Quantum Yield (BSA) / ABS λ max, BSA: 150 μg/mL BSA; for EM λ max, BSA / EM λ max, unbound / ABS λ max, BSA / ABS λ max, unbound: 10 mM Tris-HCl, pH 7.5, 0.05% SDS; for FE (fluorescence enhancement, BSA): 0.05% SDS, at emission maxima; for FE (fluorescence enhancement, BSA) / Quantum Yield (BSA): 470 nm excitation; for Quantum Yield (BSA): relative to fluorescein in 0.1 M NaOH; for EM λ max, unbound / ABS λ max, unbound: dye without BSA
BSA, sequence (P02769 25-607): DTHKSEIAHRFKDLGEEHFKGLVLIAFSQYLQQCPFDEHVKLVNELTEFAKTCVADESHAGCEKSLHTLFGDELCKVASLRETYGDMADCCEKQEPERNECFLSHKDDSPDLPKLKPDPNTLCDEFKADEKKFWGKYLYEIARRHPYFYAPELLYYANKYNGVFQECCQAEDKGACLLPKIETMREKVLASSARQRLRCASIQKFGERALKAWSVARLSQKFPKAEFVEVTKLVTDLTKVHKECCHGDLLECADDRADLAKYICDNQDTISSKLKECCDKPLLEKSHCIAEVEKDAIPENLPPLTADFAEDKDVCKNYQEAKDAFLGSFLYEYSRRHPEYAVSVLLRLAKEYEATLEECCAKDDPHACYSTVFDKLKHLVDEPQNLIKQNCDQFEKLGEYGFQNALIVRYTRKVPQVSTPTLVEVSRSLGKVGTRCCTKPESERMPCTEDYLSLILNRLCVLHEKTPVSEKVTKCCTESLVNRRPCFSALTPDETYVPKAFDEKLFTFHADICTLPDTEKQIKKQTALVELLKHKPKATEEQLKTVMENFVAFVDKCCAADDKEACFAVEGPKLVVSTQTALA
Protocol: A particular dye of this invention is generally selected for a particular assay using one or more of the following criteria: sensitivity to poly(amino acids), insensitivity to the presence of nucleic acids, dynamic range, photostability, staining time, and spectral properties. […] Although the fluorescence enhancements and quantum yields are low to moderate in solution, some are significant relative to the long wavelength emission maxima (see Table 1 and Example 21).
Measurements are performed using −1 μM dye+/−150 μg/mL BSA in 10 mM Tris-HCl, pH 7.5,+0.05% SDS with a 2.0 mL sample volume. Fluorescence enhancements are calculated at emission maxima in a standard fluorometer using 470 nm excitation. Fluorescence quantum yields are determined relative to fluorescein (in 0.1 M NaOH), using 470 nm excitation.

[1] = system: broad-range protein molecular weight markers; experiment: Staining of broad-range molecular weight protein standards in SDS-polyacrylamide gels (Example 22, FIG. 2, 3); conditions: regardless of the buffer
Protocol: (§1) FIG. 2: Intensity profile comparison after staining broad-range protein molecular weight markers with SYPRO Orange dye in 7% acetic acid and phosohate-buffered saline. FIG. 2A.) Profile obtained with SYPRO Orange dye in 7% acetic acid. FIG. 2B.) Profile obtained with SYPRO Orange dye in 50 mM sodium phosphate, 150 mM sodium chloride, pH 7.0. Grey scale values of the fluorescence signals were inverted prior to obtaining the traces to facilitate evaluation of the peaks.
as §1, with “3:” for “2:”, “Compound 9” for “SYPRO Orange dye”, “phosphate-buffered” for “phosohate-buffered”, “3A.)” for “2A.)”, “3B.)” for “2B.)”
SDS-polyacrylamide gel electrophoresis is performed by standard methods utilizing 4% T, 2.6% C stacking gels, pH 6.8 and 15% T, 2.6% C separating gels, pH 8.8. % T is the total monomer concentration expressed in grams per 100 mL and % C is the percentage crosslinker. A staining solution of Compound 9 is prepared by diluting a stock solution that 5 is […] dye in DMSO in either 7.5% acetic acid or 50 mM Na2HPO4, 150 mM NaCl, pH 7.0 with vigorous mixing. Alternatively, a wide range of buffers are compatible with staining, including but not limited to formate, pH 4.0; citrate, pH 4.5; acetate, pH 5.0; MES, pH 6.0;
imidazole, pH 7.0; HEPES, pH 7.5; Tris acetate, pH 8.0; Tris-HCl, pH 8.5; Tris borate, 20 mM EDTA, pH 9.0; and bicarbonate, pH 10.0. Buffers should be prepared as 50-100 mM 10 solutions containing about 150 mM NaCl. Approximately 50-75 mL of staining solution is used for a typical mini-gel (5 cm×9 cm×1 mm). The gel is placed into the staining solution and the container is covered with aluminum foil to protect the dye from bright light. The gel is gently agitated for at least 30 minutes at room temperature using an orbital shaker (50:RPM). After staining, the gel is briefly dipped in water and visualized on a UV light box. […] As little as 1 ng of protein may be visualized when the fluorescent image is recorded by photography using a cellophane 490-nm long pass filter. […] In the latter buffer, protein bands are barely detectable above background fluorescence with these latter dyes.

[2] = system: amino acid homo- and hetero-polymers; experiment: Dye staining of amino acid homo- and hetero-polymers copolymerized into polyacrylamide gel discs; conditions: gel discs with 0.1% SDS; no asterisk = moderate
From the text: The specificity of protein detection of the present method can be compared to that of silver, CBB, SYPRO Orange dye and SYPRO Red dye staining for a variety of synthetic poly(amino acids) copolymerized into a polyacrylamide gel matrix. To do this, homopolymers of L-arginine, asparagine, histidine, lysine, aspartate, glutamate, alanine, glycine, isoleucine, leucine, methionine, serine, threonine, tryptophan, tyrosine and proline are copolymerized into 15% T, 2.6% C polyacrylamide gels at a concentration of […]. Except when indicated, 0.1% sodium dodecyl sulfate is included in the polyacrylamide solution as well. The amino acid heteropolymers, poly(glutamate, alanine, tyrosine), poly(glutamate, tyrosine), poly(lysine, tyrosine), poly(glutamate, lysine, tyrosine), and poly(arginine, tyrosine) are copolymerized into polyacrylamide gels in an identical manner as the homopolymers. Blank gels containing no polymer are prepared for reference. The co-polymerized gels are cut into discs using the large end of a 1000 microliter pipet tip (Sorenson Bioscience, Inc., West Salt. Lake City, Utah) and stained in Falcon 48 well flat bottom tissue culture plates (Becton-Dickinson, Franklin Lakes, N.J.) on an orbital shaker operating at 50 RPM. Gel discs are quantified on a Roche Lumi-Imager system (Indianapolis, Ind.) and classified into three groups based upon staining intensity (strong, moderate, or weak staining).

| EM λ max, BSA (BSA) | FE (fluorescence enhancement, BSA) (BSA) | Quantum Yield (BSA) (BSA) | EM λ max, unbound (BSA) | ABS λ max, BSA (BSA) | ABS λ max, unbound (BSA) | Compound | Appearance of stained proteins on UV light box [1] | Staining intensity, Glu:Lys:Tyr heteropolymer [2] | Staining intensity, Ile homopolymer [2] | Staining intensity, Lys homopolymer [2] | Staining intensity, Lys:Tyr heteropolymer [2] | Staining intensity, Arg homopolymer [2] | Staining intensity, Arg:Tyr heteropolymer [2] | Staining intensity, His homopolymer [2] |
| --- | --- | --- | --- | --- | --- | --- | --- | --- | --- | --- | --- | --- | --- | --- |
| ~610 nm | 2.5 fold | 0.04 | 679 nm | – | – | CCn1c2ccccc2c2cc(/C=C/c3ccc4cc(OC)ccc4[n+]3C)ccc21 [Compound 17] | – | – | – | – | – | – | – | – |
| 590 nm | 3.0 fold | 0.01 | 611 nm | 502 nm | 503 nm | CCn1c2ccccc2c2cc(/C=C/C3=[N+](CCCCCC(=O)O)c4ccc(S(=O)(=O)[O-])cc4C3(C)C)ccc21 [Compound 18] | – | – | – | – | – | – | – | – |
| 623 nm | 25 fold | 0.17 | 676 nm | 491 nm | 480 nm | CCCCc1cc(/C=C/c2ccc3c(c2)c2ccccc2n3CC)c2ccccc2[n+]1-c1ccccc1.[Cl-] [Compound 16] | – | – | – | – | – | – | – | – |
| 591 nm | 52 fold | 0.25 | 670 nm | 469 nm | 468 nm | O=S(=O)([O-])CCCC[n+]1ccc(/C=C/c2ccc3c(c2)c2ccccc2n3-c2ccccc2)c2ccccc21 [Compound 15] | – | – | – | – | – | – | – | – |

More lines, now with the values behind:

| Compound | EM λ max, BSA (BSA) | FE (fluorescence enhancement, BSA) (BSA) | Quantum Yield (BSA) (BSA) | EM λ max, unbound (BSA) | ABS λ max, BSA (BSA) | ABS λ max, unbound (BSA) | Appearance of stained proteins on UV light box [1] | Staining intensity, Glu:Lys:Tyr heteropolymer [2] | Staining intensity, Ile homopolymer [2] | Staining intensity, Lys homopolymer [2] | Staining intensity, Lys:Tyr heteropolymer [2] | Staining intensity, Arg homopolymer [2] | Staining intensity, Arg:Tyr heteropolymer [2] | Staining intensity, His homopolymer [2] |
| --- | --- | --- | --- | --- | --- | --- | --- | --- | --- | --- | --- | --- | --- | --- |
| CCn1c2ccccc2c2cc(/C=C/c3cc[n+](CCCS(=O)(=O)[O-])cc3)ccc21 [Compound 13] | 553 nm | 15 fold | 0.24 | 588 nm | – | – | very bright yellow bands against an orange background | – | – | – | – | – | – | – |
| Silver | – | – | – | – | – | – | – | Tyr* | Ile | Lys* | Lys:Tyr* | – | – | – |
| CCOCC(=O)CCC[n+]1ccc(/C=C/c2ccc3c(c2)c2ccccc2n3CC)c2ccccc21.[Br-] [Compound 10] | 612 nm | 110 fold | 0.21 | ~700 nm | 492 nm | 468 nm | – | – | – | – | – | – | – | – |
| CCn1c2ccccc2c2cc(/C=C/c3ccc4ccccc4[n+]3CCCCS(=O)(=O)[O-])ccc21 [Compound 12] | 587 nm | 34 fold | 0.10 | 679 nm | 453 nm | 441 nm | – | – | – | – | – | – | – | – |
| CCn1c2ccccc2c2cc(/C=C/c3cc[n+](CCCC(=O)O)c4ccccc34)ccc21.[Cl-] [Compound 11] | 609 nm | 104 fold | 0.21 | ~700 nm | 483 nm | 475 nm | – | – | – | – | – | – | – | – |
| CCn1c2ccccc2c2cc(/C=C/c3sc4ccccc4[n+]3CCCS(=O)(=O)[O-])ccc21 [Compound 14] | 576 nm | 15 fold | 0.08 | 638 nm | 464 nm | 448 nm | – | – | – | – | – | – | – | – |
| CCOc1ccc(Nc2ccc(C(=C3C=CC(=[N+](CC)Cc4cccc(S(=O)(=O)[O-])c4)C=C3)c3ccc(N(CC)Cc4cccc(S(=O)(=O)[O-])c4)cc3)cc2)cc1.[Na+] [Coomassie Blue-R] | – | – | – | – | – | – | – | Glu:Lys:Tyr* | Ile | Lys* | Lys:Tyr* | Arg* | Arg:Tyr* | His |
